Results from US7276524B2, “Pyridyl alkane acid amides as cytostatics and immunosuppressives” (Astellas Deutschland GmbH, priority 1996, dated 2007).

| melting point [°C] | Compound |
| --- | --- |
| 72 to 74 | CCN(CCCCC1CCN(C(c2ccccc2)c2ccccc2)CC1)C(=O)CCc1cccnc1 [compound 68, N-[4-(1-diphenylmethyl-piperidin-4-yl)-butyl]-N-ethyl-3-(pyridin-3-yl) -propionamide] |
| 103 to 105 | O=C(COc1cccnc1)NCCCCC1CCN(C(c2ccccc2)c2ccccc2)CC1 [compound 84, N-[4-(1-diphenylmethyl-piperidin-4-yl)-butyl]-2-(pyridin-3-yloxy)-acetamide] |
| 112 to 114 | O=C(CCc1cccnc1)NCCCCCC1CCN(C(c2ccccc2)c2ccccc2)CC1 [compound 101, N-[5-(1-diphenylmethyl-piperidin-4-yl)-pentyl]-3-(pyridin-3-yl)-propionamide] |
| 110 to 112 | O=C(CCc1cccnc1)NCCCCC1CCN(C2c3ccccc3COc3ccccc32)CC1 (centres unmarked) [compound 142, N-{4-[1-(6,11-dihydrodibenzo[b,e]oxepin-11-yl)-piperidin-4-yl]-butyl}-3-(pyridin-3-yl)-propionamide] |
| 72 to 74 | O=C(CCc1cccnc1)NCCCCC1CCN(C(=O)c2ccccc2)CC1 [compound 162, N-[4-(1-benzoylpiperidin-4-yl)-butyl]-3-(pyridin-3-yl)-propionamide] |
